From US9062124B2, “GIP-based mixed agonists for treatment of metabolic disorders and obesity” (priority 2008, dated 2015)
Like-named read-outs stand apart in the source and are kept apart here. *1 amine or outer side, *2 acyl side, *3 side chain or, on linkers, in order; H or OH if unused. Where a SMILES comes first, the peptide text is derived from it. Bridges are numbered along the chain shown (N, C = ends). Where no end group is shown, it is not given here. Side-chain parts run from the residue outwards. [ ]: non-standard residue; d: D form. The star is where a group is joined. PEG 40 kDa = PEG (40 kDa) covalently attached to Cys; γGlu = O=C(O)[C@H](CCC(=O)[*:2])N[*:1]; Palmitoyl = CCCCCCCCCCCCCCCC(=O)*; Abu = CC[C@H](N)C(=O)O; Aib = CC(C)(N)C(=O)O

Legend:
[1] = target: T1, glucagon receptor (Homo sapiens, UniProt P47871); experiment: cAMP synthesis functional assay (firefly luciferase reporter in HEK293 cells), glucagon receptor; format: cell-based; details: for % Relative activity at the Receptor for Glucagon: Table 8
T1 construct: expressed in transfected cells; host or cells: HEK293
T1 sequence (P47871 26-477): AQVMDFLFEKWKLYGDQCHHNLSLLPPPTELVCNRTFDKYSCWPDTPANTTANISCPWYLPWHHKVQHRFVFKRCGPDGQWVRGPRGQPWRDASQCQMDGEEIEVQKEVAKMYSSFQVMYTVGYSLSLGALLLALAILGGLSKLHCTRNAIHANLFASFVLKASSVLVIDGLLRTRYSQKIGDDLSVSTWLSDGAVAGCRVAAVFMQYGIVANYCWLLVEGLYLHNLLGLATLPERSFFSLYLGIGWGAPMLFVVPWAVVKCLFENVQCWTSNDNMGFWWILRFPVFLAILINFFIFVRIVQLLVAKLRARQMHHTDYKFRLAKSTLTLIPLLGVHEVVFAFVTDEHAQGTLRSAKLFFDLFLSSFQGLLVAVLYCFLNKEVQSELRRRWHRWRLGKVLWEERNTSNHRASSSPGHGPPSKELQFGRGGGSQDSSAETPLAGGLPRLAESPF

[2] = target: T2, GLP-1 receptor (Homo sapiens, UniProt P43220); experiment: cAMP synthesis functional assay (firefly luciferase reporter in HEK293 cells), GLP-1 receptor; format: cell-based; details: for % Relative activity at the Receptor for GLP-1: Table 8; for EC50: read-out: GLP-1 Receptor EC50
T2 construct: expressed in transfected cells; host or cells: HEK293
T2 sequence (P43220 24-463, species assumed): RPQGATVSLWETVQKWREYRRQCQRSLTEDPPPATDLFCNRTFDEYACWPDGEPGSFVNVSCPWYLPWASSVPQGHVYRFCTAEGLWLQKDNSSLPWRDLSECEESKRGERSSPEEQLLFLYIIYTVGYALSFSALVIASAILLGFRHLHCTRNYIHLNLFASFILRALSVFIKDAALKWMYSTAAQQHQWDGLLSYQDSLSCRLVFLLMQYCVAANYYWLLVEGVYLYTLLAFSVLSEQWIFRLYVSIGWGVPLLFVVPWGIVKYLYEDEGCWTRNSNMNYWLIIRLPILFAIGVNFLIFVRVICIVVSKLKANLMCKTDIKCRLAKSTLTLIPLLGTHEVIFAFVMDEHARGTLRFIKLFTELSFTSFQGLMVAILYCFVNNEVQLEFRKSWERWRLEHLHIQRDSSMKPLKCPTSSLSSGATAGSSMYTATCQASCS

[3] = target: T3, GIP receptor (Homo sapiens, UniProt P48546); experiment: cAMP synthesis functional assay (firefly luciferase reporter in HEK293 cells), GIP receptor; format: cell-based; details: for % Relative activity at the Receptor for GIP: Table 8
T3 construct: expressed in transfected cells; host or cells: HEK293
T3 sequence (P48546 22-466): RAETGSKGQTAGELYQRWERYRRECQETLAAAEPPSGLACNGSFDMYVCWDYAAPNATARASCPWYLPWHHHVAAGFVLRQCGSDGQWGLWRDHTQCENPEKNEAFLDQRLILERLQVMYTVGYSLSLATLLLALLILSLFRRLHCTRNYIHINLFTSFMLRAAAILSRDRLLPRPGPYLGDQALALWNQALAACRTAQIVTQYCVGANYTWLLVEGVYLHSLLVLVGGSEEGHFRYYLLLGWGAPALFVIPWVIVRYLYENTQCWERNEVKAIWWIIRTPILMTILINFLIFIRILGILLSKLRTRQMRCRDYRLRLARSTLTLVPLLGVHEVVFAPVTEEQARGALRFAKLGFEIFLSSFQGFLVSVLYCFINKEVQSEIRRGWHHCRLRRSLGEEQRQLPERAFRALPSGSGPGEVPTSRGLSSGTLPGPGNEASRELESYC

[4] = system: glucagon receptor, GLP-1 receptor or GIP receptor; experiment: Agonist profile across receptors assigned from the cAMP reporter assay data; format: cell-based; details: assigned from the in vitro EC50 data of Tables 1-4
[5] = Body weight of mice after peptide injection; details: Example 41; DIO mice, subcutaneous daily for 7 days, 10 nmol/kg, Day 7
[6] = relative to the standard (Std.) EC50 of the same run
[7] = Table 4, relative to the native hormone
[8] = Table 1, relative to the native hormone of the indicated receptor

Row | Molecule | receptor activity profile (glucagon / GLP-1 / GIP agonism) [4] | Glucagon Receptor relative activity [1, 7] | % Relative activity at the Receptor for Glucagon [1] | GLP-1 Receptor relative activity [2, 7] | % Relative activity at the Receptor for GLP-1 [2] | GIP Receptor relative activity [3, 7] | % Relative activity at the Receptor for GIP [3] | total change in body weight (weight loss, decrease) [5] | also measured
1 | CC[C@H](NC(=O)[C@H](Cc1ccccc1)NC(=O)[C@@H](NC(=O)CNC(=O)[C@H](CCC(N)=O)NC(=O)C(C)(C)NC(=O)[C@@H](N)Cc1ccc(O)cc1)[C@@H](C)O)C(=O)N[C@@H](CO)C(=O)N[C@@H](CC(=O)O)C(=O)N[C@@H](Cc1ccc(O)cc1)C(=O)N[C@@H](CO)C(=O)N[C@H](C(=O)N[C@@H](Cc1ccc(O)cc1)C(=O)N[C@@H](CC(C)C)C(=O)N[C@@H](CC(=O)O)C(=O)N[C@@H](CCCCN)C(=O)N[C@@H](CCC(N)=O)C(=O)N[C@@H](C)C(=O)N[C@@H](C)C(=O)NC(C)(C)C(=O)N[C@@H](CCC(=O)O)C(=O)N[C@@H](Cc1ccccc1)C(=O)N[C@H](C(=O)N[C@@H](CC(N)=O)C(=O)N[C@@H](Cc1c[nH]c2ccccc12)C(=O)N[C@@H](CC(C)C)C(=O)N[C@@H](CC(C)C)C(=O)N[C@@H](C)C(=O)NCC(=O)NCC(=O)N1CCC[C@H]1C(=O)N[C@@H](CO)C(=O)N[C@@H](CO)C(=O)NCC(=O)N[C@@H](C)C(=O)N1CCC[C@H]1C(=O)N1CCC[C@H]1C(=O)N1CCC[C@H]1C(=O)N[C@@H](CO)C(=O)N[C@@H](CS)C(N)=O)C(C)C)[C@@H](C)CC [mt-325] (H-Y[Aib]QGTF[Abu]SDYSIYLDKQAA[Aib]EFVNWLLAGGPSSGAPPPSC-NH2; N-terminus assumed) | exhibited activity at the glucagon and GIP receptors, but not at the GLP-1 receptor | – | – | – | – | – | – | – | Glucagon Receptor relative activity [1, 6]: 86.45%; GLP-1 Receptor relative activity [2, 6]: 0.83%; GIP Receptor relative activity [3, 6]: 111.43%
2 | CCCCCCCCCCCCCCCC(=O)N[C@@H](CCC(=O)N[C@@H](CCC(=O)NCCCC[C@H](NC(=O)[C@H](CO)NC(=O)[C@@H]1CCCN1C(=O)[C@@H]1CCCN1C(=O)[C@@H]1CCCN1C(=O)[C@H](C)NC(=O)CNC(=O)[C@H](CO)NC(=O)[C@H](CO)NC(=O)[C@@H]1CCCN1C(=O)CNC(=O)CNC(=O)[C@H](C)NC(=O)[C@H](CC(C)C)NC(=O)[C@H](CC(C)C)NC(=O)[C@H](Cc1c[nH]c2ccccc12)NC(=O)[C@H](CC(N)=O)NC(=O)[C@@H](NC(=O)[C@H](Cc1ccccc1)NC(=O)[C@H](CCC(=O)O)NC(=O)C(C)(C)NC(=O)[C@H](C)NC(=O)[C@H](C)NC(=O)[C@H](CCC(N)=O)NC(=O)[C@H](CCCCN)NC(=O)[C@H](CC(=O)O)NC(=O)[C@H](CC(C)C)NC(=O)[C@H](Cc1ccc(O)cc1)NC(=O)[C@@H](NC(=O)[C@H](CO)NC(=O)[C@H](Cc1ccc(O)cc1)NC(=O)[C@H](CC(=O)O)NC(=O)[C@H](CO)NC(=O)[C@@H](NC(=O)[C@H](Cc1ccccc1)NC(=O)[C@@H](NC(=O)CNC(=O)[C@H](CCC(=O)O)NC(=O)C(C)(C)NC(=O)[C@@H](N)Cc1ccc(O)cc1)[C@@H](C)O)[C@@H](C)O)[C@@H](C)CC)C(C)C)C(N)=O)C(=O)O)C(=O)O [mt-367] | – | 4.11% | 4.11% | 405.94% | 405.94% | 202.82% | 202.82% | ~18% | EC50 ([3]; GIP Receptor EC50, nM, Table 4): 0.0014 nM
3 | CCCCCCCCCCCCCCCC(=O)N[C@@H](CCC(=O)N[C@@H](CCC(=O)NCCCC[C@H](NC(=O)[C@H](CO)NC(=O)[C@@H]1CCCN1C(=O)[C@@H]1CCCN1C(=O)[C@@H]1CCCN1C(=O)[C@H](C)NC(=O)CNC(=O)[C@H](CO)NC(=O)[C@H](CO)NC(=O)[C@@H]1CCCN1C(=O)CNC(=O)CNC(=O)[C@H](C)NC(=O)[C@H](CC(C)C)NC(=O)[C@H](CC(C)C)NC(=O)[C@H](Cc1c[nH]c2ccccc12)NC(=O)[C@H](CC(N)=O)NC(=O)[C@@H](NC(=O)[C@H](Cc1ccccc1)NC(=O)[C@H](CCC(=O)O)NC(=O)C(C)(C)NC(=O)[C@H](C)NC(=O)[C@H](C)NC(=O)[C@H](CCC(N)=O)NC(=O)[C@H](CCCCN)NC(=O)[C@H](CC(=O)O)NC(=O)[C@H](CC(C)C)NC(=O)[C@H](Cc1ccc(O)cc1)NC(=O)[C@@H](NC(=O)[C@H](CO)NC(=O)[C@H](Cc1ccc(O)cc1)NC(=O)[C@H](CC(=O)O)NC(=O)[C@H](CO)NC(=O)[C@@H](NC(=O)[C@H](Cc1ccccc1)NC(=O)[C@@H](NC(=O)CNC(=O)[C@H](CCC(N)=O)NC(=O)C(C)(C)NC(=O)[C@@H](N)Cc1ccc(O)cc1)[C@@H](C)O)[C@@H](C)O)[C@@H](C)CC)C(C)C)C(N)=O)C(=O)O)C(=O)O [mt-368] (H-Y[Aib]QGTFTSDYSIYLDKQAA[Aib]EFVNWLLAGGPSSGAPPPSK([γGlu-γGlu-Palmitoyl])-NH2; N-terminus assumed) | – | 491.82% | 491.82% | 418.93% | 418.93% | 296.07% | 296.07% | ~22% | EC50 ([1]; Glucagon Receptor EC50, nM, Table 4): 0.0069 nM
4 | CCCCCCCCCCCCCCCC(=O)N[C@@H](CCC(=O)N[C@@H](CCC(=O)NCCCC[C@H](NC(=O)[C@H](CC(=O)O)NC(=O)[C@H](CO)NC(=O)[C@@H](NC(=O)[C@H](Cc1ccccc1)NC(=O)[C@@H](NC(=O)CNC(=O)[C@H](CCC(=O)O)NC(=O)C(C)(C)NC(=O)[C@@H](N)Cc1ccc(O)cc1)[C@@H](C)O)[C@@H](C)O)C(=O)N[C@@H](CO)C(=O)N[C@H](C(=O)N[C@@H](Cc1ccc(O)cc1)C(=O)N[C@@H](CC(C)C)C(=O)N[C@@H](CC(=O)O)C(=O)N[C@@H](CCCCN)C(=O)N[C@@H](CCC(N)=O)C(=O)N[C@@H](C)C(=O)N[C@@H](C)C(=O)NC(C)(C)C(=O)N[C@@H](CCC(=O)O)C(=O)N[C@@H](Cc1ccccc1)C(=O)N[C@H](C(=O)N[C@@H](CC(N)=O)C(=O)N[C@@H](Cc1c[nH]c2ccccc12)C(=O)N[C@@H](CC(C)C)C(=O)N[C@@H](CC(C)C)C(=O)N[C@@H](C)C(=O)NCC(=O)NCC(=O)N1CCC[C@H]1C(=O)N[C@@H](CO)C(=O)N[C@@H](CO)C(=O)NCC(=O)N[C@@H](C)C(=O)N1CCC[C@H]1C(=O)N1CCC[C@H]1C(=O)N1CCC[C@H]1C(=O)N[C@@H](CO)C(=O)N[C@@H](CCCCN)C(N)=O)C(C)C)[C@@H](C)CC)C(=O)O)C(=O)O [mt-369] (H-Y[Aib]EGTFTSDK([γGlu-γGlu-Palmitoyl])SIYLDKQAA[Aib]EFVNWLLAGGPSSGAPPPSK-NH2; N-terminus assumed) | – | 1.54% | 1.54% | 385.05% | 385.05% | 204.26% | 204.26% | ~25% | EC50 ([3]; GIP Receptor EC50, nM, Table 4): 0.0014 nM
5 | mt-179: glucagon analog peptide, C-terminal amide; called GIP/glucagon co-agonist and triagonist (Y[Aib]QGTFISDYSIYLDEQAAKEFVC(PEG 40 kDa)WLLAG-NH2; lactam 16-20) | exemplary GLP-1/GIP/glucagon triagonist peptides | – | – | – | – | – | – | – | Glucagon Receptor relative activity [1, 8]: 2.92%; EC50 ([1]; read-out: Glucagon Receptor EC50, Table 1): 1.27 nM; GLP-1 Receptor relative activity [2, 8]: 7.50%; EC50 ([2]; Table 1): 0.26 nM; GIP Receptor relative activity [3, 8]: 3.74%; EC50 ([3]; read-out: GIP Receptor EC50, Table 1): 0.473 nM
6 | mt-249: linear peptide lacking a lactam bridge, AIB at position 16 and/or 20 (Y[Aib]QGTFTSDYSIYLD[Aib]QAAQEFVNWLLAGGPSSGAPPPSC(PEG 40 kDa)-NH2) | exhibited activities of glucagon/GLP-1/GIP triagonists | – | – | – | – | – | – | – | Glucagon Receptor relative activity ([1]; Table 2): 0.59%; EC50 ([1]; read-out: Glucagon Receptor EC50, Table 2, linear peptides with AIB at position 16 and/or 20): 10.3 nM; GLP-1 Receptor relative activity ([2]; Table 2): 2.56%; EC50 ([2]; Table 2): 0.391 nM; GIP Receptor relative activity ([3]; Table 2): 0.63%; EC50 ([3]; read-out: GIP Receptor EC50, Table 2): 2.71 nM
7 | mt-295: linear peptide of Table 3 (Y[Aib]EGTFTSDYSIYLDKQAA[Aib]EFVNWLLAGGPSSGAPPPSC(PEG 40 kDa)-NH2) | exhibited activity at the GIP, GLP-1, and glucagon receptors | – | – | – | – | – | – | – | Glucagon Receptor relative activity [1, 6]: 0.03%; EC50 ([2]; cAMP luciferase reporter assay as in Example 16): 0.114 nM; GLP-1 Receptor relative activity [2, 6]: 6.74%; EC50 ([3]; read-out: GIP Receptor EC50, cAMP luciferase reporter assay as in Example 16): 0.0577 nM; GIP Receptor relative activity [3, 6]: 19.06%
8 | mt-384: glucagon analog: Tyr1, AIB2, Lys10(γGlu-γGlu-C16), Ile12, Lys16, Gln17, Ala18, AIB20, Glu21, Asn24, Leu27, Ala28, Gly29, GPSSGAPPPS, amide (Y[Aib]QGTFTSDK([γGlu-γGlu-C16])SIYLDKQAA[Aib]EFVNWLLAGGPSSGAPPPS-NH2) | – | – | – | – | – | – | – | ~21% | –
9 | mt-385: same structure as Peptide mt-384 except that Thr at position 7 was changed to an Ile (Y[Aib]QGTFISDK([γGlu-γGlu-C16])SIYLDKQAA[Aib]EFVNWLLAGGPSSGAPPPS-NH2) | – | – | – | – | – | – | – | ~15% | –
